Test results as given in US20240301003A1 (NoNO Inc., priority 2021, published 2024).
One block for each compound: values may come before it. Where a SMILES comes first, the peptide text is derived from it. Where no end group is shown, it is not given here. [ ]: non-standard residue; d: D form.

Key:
[1] = MTD studies and renal toxicity in rats (creatinine, BUN); conditions: rats, addition of sodium benzoate (NA-3+SB)
plasmin [2] = target: T1, plasmin (Homo sapiens, UniProt P00747); test: Plasmin sensitivity: peptides in PBS challenged with 10 ug/ml plasmin, HPLC; conditions: 10 ug/mL plasmin, 45 minutes (FIG. 29)
plasmin [3] = test: peptides in PBS challenged with 10 ug/ml plasmin; conditions: 37 C, up to 30 minutes
plasmin [4] = test: 10 ug/mL plasmin; conditions: up to 45 minutes
plasmin [5] = target: T1, plasmin; test: in vitro; conditions: isolated enzyme plasmin
[6] = Pharmacokinetic analysis in rats (subcutaneous, pulmonary instillation, intravenous, intramuscular), HPLC
PSD95PDZ2 = PSD95PDZ2 (Homo sapiens, UniProt P78352); test: Competitive ELISA with biotinylated-NA-1; conditions: PSD-95 domain 2, FIG. 12
histamine release = test: Histamine release in rats, plasma histamine ELISA; conditions: co-administration of lodoxamide (0.6 mg/kg)

T1 sequence (P00747 581-810 limits assumed, species assumed): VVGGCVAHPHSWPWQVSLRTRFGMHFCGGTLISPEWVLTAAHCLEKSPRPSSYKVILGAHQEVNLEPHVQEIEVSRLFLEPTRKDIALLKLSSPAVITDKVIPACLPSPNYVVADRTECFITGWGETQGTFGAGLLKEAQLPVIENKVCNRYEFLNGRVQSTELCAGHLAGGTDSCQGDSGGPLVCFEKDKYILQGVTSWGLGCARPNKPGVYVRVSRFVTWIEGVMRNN
T1 sequence (P00747 97-580 partner limits assumed, species assumed): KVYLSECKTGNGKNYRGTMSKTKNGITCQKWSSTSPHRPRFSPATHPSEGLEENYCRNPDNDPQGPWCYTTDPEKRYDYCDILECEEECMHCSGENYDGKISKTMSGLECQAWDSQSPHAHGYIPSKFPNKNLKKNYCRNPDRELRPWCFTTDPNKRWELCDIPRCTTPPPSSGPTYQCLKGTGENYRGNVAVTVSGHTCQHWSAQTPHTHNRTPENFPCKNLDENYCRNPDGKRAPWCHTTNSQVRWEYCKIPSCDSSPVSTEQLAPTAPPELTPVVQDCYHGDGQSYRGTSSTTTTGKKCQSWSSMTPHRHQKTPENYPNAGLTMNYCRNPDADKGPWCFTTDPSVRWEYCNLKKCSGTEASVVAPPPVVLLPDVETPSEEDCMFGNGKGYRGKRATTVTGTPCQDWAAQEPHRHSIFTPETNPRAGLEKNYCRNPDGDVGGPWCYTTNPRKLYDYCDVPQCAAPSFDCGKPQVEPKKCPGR
Sequence of PSD95PDZ2 (P78352 160-246 limits assumed): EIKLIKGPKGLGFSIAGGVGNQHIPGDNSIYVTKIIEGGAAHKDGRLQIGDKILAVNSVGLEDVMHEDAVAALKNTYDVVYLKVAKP

Compound: O=C([O-])c1ccccc1.[Na+] [sodium benzoate, reference compound]
- effect on creatinine and BUN levels induced by 25 mg/kg NA-3 [1]: reduces the creatinine and BUN levels

Compound: CC[C@H](C)[C@H](NC(=O)[C@H](CCCNC(=N)N)NC(=O)[C@@H](CCCNC(=N)N)NC(=O)[C@@H](CCCNC(=N)N)NC(=O)[C@H](CCC(N)=O)NC(=O)[C@@H](CCCNC(=N)N)NC(=O)[C@H](CCCNC(=N)N)NC(=O)[C@@H](CCCCN)NC(=O)[C@H](CCCCN)NC(=O)[C@@H](N)CCCNC(=N)N)C(=O)N[C@@H](CCC(=O)O)C(=O)N[C@@H](CO)C(=O)N[C@@H](CC(=O)O)C(=O)N[C@H](C(=O)O)C(C)C [NoNO 414, RKkRrQrrRIESDV] (HELM PEPTIDE1{R.K.[dK].R.[dR].Q.[dR].[dR].R.I.E.S.D.V}$$$$V2.0)
- plasmin resistance (plasmin [2]): resistance to plasmin

Compound: YGrKKRrQRRrKLSSIESDV (YG[dR]KKR[dR]QRR[dR]KLSSIESDV)
- not cleaved (plasmin [3]): essentially 100% intact peptide after 30 minutes

Compound: YGRKkRRqRRrKLSSIESDV (YGRK[dK]RR[dQ]RR[dR]KLSSIESDV)
- not cleaved (plasmin [3]): essentially 100% intact peptide after 30 minutes

- not cleaved (plasmin [4]): no degradation observed in 45 minutes
Compound: rKKRrQrRRIESDV

Compound: CC[C@H](C)[C@H](NC(=O)[C@@H](CCCNC(=N)N)NC(=O)[C@H](CCCNC(=N)N)NC(=O)[C@@H](CCCNC(=N)N)NC(=O)[C@H](CCC(N)=O)NC(=O)[C@@H](CCCNC(=N)N)NC(=O)[C@@H](CCCNC(=N)N)NC(=O)[C@@H](CCCCN)NC(=O)[C@@H](CCCCN)NC(=O)[C@@H](N)CCCNC(=N)N)C(=O)N[C@@H](CCC(=O)O)C(=O)N[C@@H](CO)C(=O)N[C@@H](CC(=O)O)C(=O)N[C@H](C(=O)O)C(C)C [NoNO 411, RkkrrQrRrIESDV] (HELM PEPTIDE1{R.[dK].[dK].[dR].[dR].Q.[dR].R.[dR].I.E.S.D.V}$$$$V2.0; N-terminus and C-terminus assumed)
- plasmin resistance (plasmin [2]): resistance to plasmin

- remaining at 0.5 h, 65 ug/ml (plasmin [5]): ~100%
Compound: CC[C@H](C)[C@H](NC(=O)[C@H](CO)NC(=O)[C@H](CO)NC(=O)[C@H](CC(C)C)NC(=O)[C@H](CCCCN)NC(=O)[C@@H](CCCNC(=N)N)NC(=O)[C@H](CCCNC(=N)N)NC(=O)[C@H](CCCNC(=N)N)NC(=O)[C@H](CCC(N)=O)NC(=O)[C@@H](CCCNC(=N)N)NC(=O)[C@H](CCCNC(=N)N)NC(=O)[C@H](CCCCN)NC(=O)[C@H](CCCCN)NC(=O)[C@@H](CCCNC(=N)N)NC(=O)CNC(=O)[C@@H](N)Cc1ccc(O)cc1)C(=O)N[C@@H](CCC(=O)O)C(=O)N[C@@H](CO)C(=O)N[C@@H](CC(=O)O)C(=O)N[C@H](C(=O)O)C(C)C [NA-4.4.1] (HELM PEPTIDE1{Y.G.[dR].K.K.R.[dR].Q.R.R.[dR].K.L.S.S.I.E.S.D.V}$$$$V2.0; N-terminus and C-terminus assumed)

- remaining at 0.5 h, 65 ug/ml (plasmin [5]): ~100%
Compound: CC[C@H](C)[C@H](NC(=O)[C@H](CO)NC(=O)[C@H](CO)NC(=O)[C@H](CC(C)C)NC(=O)[C@H](CCCCN)NC(=O)[C@@H](CCCNC(=N)N)NC(=O)[C@H](CCCNC(=N)N)NC(=O)[C@H](CCCNC(=N)N)NC(=O)[C@@H](CCC(N)=O)NC(=O)[C@H](CCCNC(=N)N)NC(=O)[C@H](CCCNC(=N)N)NC(=O)[C@@H](CCCCN)NC(=O)[C@H](CCCCN)NC(=O)[C@H](CCCNC(=N)N)NC(=O)CNC(=O)[C@@H](N)Cc1ccc(O)cc1)C(=O)N[C@@H](CCC(=O)O)C(=O)N[C@@H](CO)C(=O)N[C@@H](CC(=O)O)C(=O)N[C@H](C(=O)O)C(C)C [NA-411.4] (HELM PEPTIDE1{Y.G.R.K.[dK].R.R.[dQ].R.R.[dR].K.L.S.S.I.E.S.D.V}$$$$V2.0; N-terminus and C-terminus assumed)

Compound: CC[C@H](C)[C@H](NC(=O)[C@H](CCCNC(=N)N)NC(=O)[C@H](CCCNC(=N)N)NC(=O)[C@@H](CCCNC(=N)N)NC(=O)[C@H](CCC(N)=O)NC(=O)[C@@H](CCCNC(=N)N)NC(=O)[C@H](CCCNC(=N)N)NC(=O)[C@H](CCCCN)NC(=O)[C@H](CCCCN)NC(=O)[C@H](N)CCCNC(=N)N)C(=O)N[C@@H](CCC(=O)O)C(=O)N[C@@H](CO)C(=O)N[C@@H](CC(=O)O)C(=O)N[C@H](C(=O)O)C(C)C [NoNO 415, rKKRrQrRRIESDV] (HELM PEPTIDE1{[dR].K.K.R.[dR].Q.[dR].R.R.I.E.S.D.V}$$$$V2.0)
- plasmin resistance (plasmin [2]): resistance to plasmin

Compound: CC[C@@H](C)[C@@H](NC(=O)[C@@H](CO)NC(=O)[C@@H](CO)NC(=O)[C@@H](CC(C)C)NC(=O)[C@@H](CCCCN)NC(=O)[C@@H](CCCNC(=N)N)NC(=O)[C@@H](CCCNC(=N)N)NC(=O)[C@@H](CCCNC(=N)N)NC(=O)[C@@H](CCC(N)=O)NC(=O)[C@@H](CCCNC(=N)N)NC(=O)[C@@H](CCCNC(=N)N)NC(=O)[C@@H](CCCCN)NC(=O)[C@@H](CCCCN)NC(=O)[C@@H](CCCNC(=N)N)NC(=O)CNC(=O)[C@H](N)Cc1ccc(O)cc1)C(=O)N[C@H](CCC(=O)O)C(=O)N[C@H](CO)C(=O)N[C@H](CC(=O)O)C(=O)N[C@@H](C(=O)O)C(C)C [D-NA-1, ygrkkrrqrrrklssiesdv] (HELM PEPTIDE1{[dY].G.[dR].[dK].[dK].[dR].[dR].[dQ].[dR].[dR].[dR].[dK].[dL].[dS].[dS].[dI].[dE].[dS].[dD].[dV]}$$$$V2.0)
- plasma concentration and plasma exposure relative to intrapulmonary NA-1 ([6]; pulmonary instillation): higher plasma concentration and a greater plasma exposure
- AUC compared with subcutaneous NA-1 ([6]; subcutaneous 25 mg/kg): increased Cmax and AUC relative to subcutaneous NA-1 but not to the same extent
- Cmax compared with subcutaneous NA-1 ([6]; subcutaneous 25 mg/kg): increased Cmax and AUC relative to subcutaneous NA-1 but not to the same extent
- EC50 (compared between peptides) (PSD95PDZ2): about ten-fold lower

- not cleaved (plasmin [4]): no degradation observed in 45 minutes
Compound: RKkRrQrrRIESDV

Compound: RkkrrQrRrIESDV (HELM PEPTIDE1{R.[dK].[dK].[dR].[dR].Q.[dR].R.[dR].I.E.S.D.V}$$$$V2.0; N-terminus and C-terminus assumed; SMILES CC[C@H](C)[C@H](NC(=O)[C@@H](CCCNC(=N)N)NC(=O)[C@H](CCCNC(=N)N)NC(=O)[C@@H](CCCNC(=N)N)NC(=O)[C@H](CCC(N)=O)NC(=O)[C@@H](CCCNC(=N)N)NC(=O)[C@@H](CCCNC(=N)N)NC(=O)[C@@H](CCCCN)NC(=O)[C@@H](CCCCN)NC(=O)[C@@H](N)CCCNC(=N)N)C(=O)N[C@@H](CCC(=O)O)C(=O)N[C@@H](CO)C(=O)N[C@@H](CC(=O)O)C(=O)N[C@H](C(=O)O)C(C)C)
- not cleaved (plasmin [4]): no degradation observed in 45 minutes

Compound: YGrKKRrQrRRkLSSIESDV (YG[dR]KKR[dR]Q[dR]RR[dK]LSSIESDV)
- not cleaved (plasmin [3]): essentially 100% intact peptide after 30 minutes

Compound: N#Cc1cc(NC(=O)C(=O)O)c(Cl)c(NC(=O)C(=O)O)c1 [lodoxamide, 2-[2-chloro-5-cyano-3-(oxaloamino)anilino]-2-oxoacetic acid, reference compound]
- effect on histamine induced by D-Tat-L-2B9C at 7.6 mg/kg IV (histamine release): abrogated
